The source of these data is publication PMC7890096, “Binding of non-canonical peptidoglycan controls Vibrio cholerae broad spectrum racemase activity” (Computational and Structural Biotechnology Journal, 2021).

For the assay, the system named is BsrV. Put plainly: in vitro BsrV racemase assay (L-Ala substrate) with muropeptides, Marfey's/HPLC. Format: biochemical, Vibrio cholerae. As to conditions: 4 mM L-Ala, 5 min at 37 °C, Bicarbonate buffer 50 mM pH 9, Fig. 3A; for inhibition of BsrV D-Ala production, in words: D-cycloserine 0.1 mM, tripeptide and D-Ala-D-Ala at equal concentration (amino acid, tripeptide/dipeptide), p dipeptide vs tripeptide = 0.0181, tripeptide vs M4 = 0.0027, M3R vs D-cycloserine < 0.0001. The procedure: For activity assays, in vitro LAA and DAAS were characterized with Marfey’s (FDAA)-derivatization in HPLC and DAAO assay (D-amino acid oxidase) performed as described. The product from a racemization reaction was derivatized with L-FDAA (1-fluoro-2-4-dinitrophenyl-5-L-alanine amide, Marfey’s reagent, Thermo Scientific). First, an equal volume of NaHCO3 0.5 M was added to the racemization reaction; then, 6 µL of this reaction was reacted with FDAA (10 mg/mL in acetone) at 80 °C for 3 min. The reaction was stopped with HCl 2 N and the samples were filtered. The products were separated with a linear gradient of triethylamine phosphate/acetonitrile in HPLC with an Aeris peptide column (250 × 4.6 mm; 3.6 μm particle size) (Phenomenex, USA) and detected at Abs.340 nm. To determine the inhibition effect of the sacculus in BsrV's activity, 35 µg of sacculi were incubated for 5 min at 37 °C with BsrV and 4 mM of L-Ala in Tris-HCl 50 mM pH 8. […] DAAO reaction was determined by coupling 10 µL of the extract into 150 µL of a reaction containing: sodium phosphate buffer 100 mM pH 7, Trigonopsis variabilis D-amino acid oxidase (DAAO) (Komarova et al., 2012) 3.6 U/ml, horseradish peroxidase 1 U/mL, o-phenylenediamine (OPD) 2 mg/mL and FAD 3 mg/ml. This two-step assay permits the quantification of H2O2 (DAAO is able to produce α-ketoacid, NH3 and H2O2 from DAA). Peroxidase reduces H2O2, […], leading to the production of 2,3–25 diaminophenazine. The reaction was incubated for 2 h at 37 °C and inactivated with HCl 3 M, giving a colorimetric product that can be measured at 492 nm. To determine the inhibition effect of muropeptides in BsrV's activity, 0.1 mM of M4 (GlcNAc-MurNAc-Ala-Glu-DAP (Diaminopimelate)-Ala), M3M (GlcNAc-MurNAc-Ala-Glu-DAP-Met), M3R (GlcNAc-MurNAc-Ala-Glu-DAP-Arg) and D-cycloserine were incubated with BsrV and 4 mM of L-Ala for 5 min at 37 °C (1/40 relation) in Bicarbonate buffer 50 mM pH 9. In the case of tripeptide and D-Ala-D-Ala, equal concentration (amino acid, tripeptide/dipeptide) was utilized.
Fig. 3 Peptidoglycan inhibits BsrV’s activity. (A) Inhibitory effect of muropeptides on BsrV activity. In vitro BsrV racemase assays with L-Ala as substrate in the presence of (see schematics): M4 (disaccharide tetrapeptide), M3M and M3R; the asterisk represents D-Met and D-Arg substitutions in the fourth position. […] P values: [dipeptide vs tripeptide] = 0.0181; [tripeptidevsM4] = 0.0027; [M4vsM3M] = 0.0003; [M4vsM3R] < 0.0003; [M3MvsM3R] = 0.2552; [M3RvsD-cycloserine] < 0.0001. (B) Inhibitory effect of peptidoglycan sacculi on BsrV activity. In vitro BsrV racemase assays with L-Ala as substrate in the presence of undigested sacculi (see schematics). Sugar rings are represented by hexagons and peptides are depicted. […]

In the case of L-Ala-D-Glu-D-Lys [tripeptide], the “inhibition of BsrV D-Ala production, in words” value (“inhibition … in words” for short) is on record as “inhibit the least”.

Turning to `N[C@@H]1CON=C1O` [D-cycloserine], the “inhibition … in words” value is reported as “inhibit the least”.

As to D-Ala-D-Ala [dipeptide], the “inhibition … in words” value is given as “inhibit the least”.

Take `CC(=O)N[C@H]1[C@H](O[C@H]2[C@H](O[C@H](C)C(=O)N[C@@H](C)C(=O)N[C@H](CCC(=O)N[C@@H](CCC[C@@H](N)C(=O)O)C(=O)N[C@H](C)C(=O)O)C(=O)O)[C@@H](NC(C)=O)C(O)O[C@@H]2CO)O[C@H](CO)[C@@H](O)[C@@H]1O` (stereo partly drawn) [M4, GlcNAc-MurNAc-Ala-Glu-DAP-Ala]: the “reduction in D-Ala production (% of inhibition)” value (0.1 mM muropeptide, Marfey's derivatization, HPLC 340 nm, vs control reaction with no inhibitor, single time point, p M4 vs M3M = 0.0003, M4 vs M3R < 0.0003, M3M vs M3R = 0.2552) was ~ 20%.
